According to patent publication US7049443B2, “Amide-containing compound having improved solubility and method of improving the solubility of an amide-containing compound” (Pharmacia & Upjohn Company, priority 2001, dated 2006):
Where “and” joins values, the source holds several entries; their conditions need not be identical. Equal entries are not always repeated.

SMILES | melting point
NC(=O)[C@H]1CN(c2ccc([C@H]3CC[S@@+]([O-])CC3)c(F)c2)C(=O)O1 (racemic) [Example 456, (SR)-3-[3-Fluoro-4-(cis-tetrahydro-1-oxido-2H-thiopyran-4-yl)phenyl]-2-oxo-5-oxazolidinecarboxamide] | 279 to 281 °C (dec.)
NC(=O)[C@H]1CN(c2ccc([C@H]3CC[S@+]([O-])CC3)cc2)C(=O)O1 (racemic) [Example 460, (SR)-3-[4-(trans-tetrahydro-1-oxido-2H-thiopyran-4-yl)phenyl]-2-oxo-5-oxazolidinecarboxamide] | 174 to 175 °C
NC(=O)[C@H]1CN(c2ccc(N3CCOCC3)c(F)c2)C(=O)O1 [Example 435, (5R)-(−)-3-[3-Fluoro-4-(4-morpholinyl)phenyl]-2-oxo-5-oxazolidinecarboxamide] | 185 to 187 °C (dec.)
CNC(=O)[C@H]1CN(c2ccc(N3CCOCC3)c(F)c2)C(=O)O1 [Example 436, (5R)-(−)-3-[3-Fluoro-4-(4-morpholinyl)phenyl]-N-methyl-2-oxo-5-oxazolidinecarboxamide] | 182 to 183 °C (dec.)
C=CCNC(=O)[C@H]1CN(c2ccc(N3CCOCC3)c(F)c2)C(=O)O1 [Example 437, (5R)-(−)-3-[3-Fluoro-4-(4-morpholinyl)phenyl]-N-allyl-2-oxo-5-oxazolidinecarboxamide] | 167 to 169 °C
CCCNC(=O)[C@H]1CN(c2ccc(N3CCOCC3)c(F)c2)C(=O)O1 [Example 438, (5R)-(−)-3-[3-Fluoro-4-(4-morpholinyl)phenyl]-N-propyl-2-oxo-5-oxazolidinecarboxamide] | 165 to 167 °C
CONC(=O)[C@H]1CN(c2ccc(N3CCOCC3)c(F)c2)C(=O)O1 [Example 439, (5R)-(−)-3-[3-Fluoro-4-(4-morpholinyl)phenyl]-N-methoxy-2-oxo-5-oxazolidinecarboxamide] | 206 to 208 °C (dec.)
O=C(NO)[C@H]1CN(c2ccc(N3CCOCC3)c(F)c2)C(=O)O1 [Example 440, (5R)-(−)-3-[3-Fluoro-4-(4-morpholinyl)phenyl]-N-hydroxy-2-oxo-5-oxazolidinecarboxamide] | 141 to 143 °C
NC(=O)[C@H]1CN(c2ccc(-c3cccnc3)c(F)c2)C(=O)O1 [Example 441, (5R)-(−)-3-[4-(3-Pyridyl)-3-fluorophenyl]-2-oxo-5-oxazolidinecarboxamide] | 240 to 242 °C (dec.)
NC(=O)[C@H]1CN(c2ccc(-c3ccncc3)c(F)c2)C(=O)O1 [Example 442, (5R)-(−)-3-[4-(4-Pyridyl)-3-fluorophenyl]-2-oxo-5-oxazolidinecarboxamide] | 256 to 259 °C (dec.)
NC(=O)[C@H]1CN(c2ccc(C3=CCOCC3)c(F)c2)C(=O)O1 [Example 443, (5R)-(−)-3-[4-(3,6-Dihydro-2H-pyran-4-yl)-3-fluorophenyl]-2-oxo-5-oxazolidinecarboxamide] | 164 to 169 °C
NC(=O)[C@H]1CN(c2ccc(C3CCOCC3)c(F)c2)C(=O)O1 [Example 444, (5R)-(−)-3-[4-(Tetrahydro-2H-pyran-4-yl)-3-fluorophenyl]-2-oxo-5-oxazolidinecarboxamide] | 153 to 156 °C
NC(=O)[C@H]1CN(c2ccc(C3=CC[S+]([O-])CC3)c(F)c2)C(=O)O1 (stereo partly drawn) [Example 445, (5R)-3-[4-(3,6-Dihydro-2H-thiopyran-4-yl)-3-fluorophenyl]-2-oxo-5-oxazolidinecarboxamide S-oxide] | 182 to 184 °C (dec.)
NC(=O)[C@H]1CN(c2ccc(C3=CCS(=O)(=O)CC3)c(F)c2)C(=O)O1 [Example 446, (5R)-(−)-3-[4-(3,6-Dihydro-2H-thiopyran-4-yl)-3-fluorophenyl]-2-oxo-5-oxazolidinecarboxamide S,S-dioxide] | 206 to 208 °C
NC(=O)[C@H]1CN(c2ccc(C3CCS(=O)(=O)CC3)c(F)c2)C(=O)O1 [Example 447, (5R)-(−)-3-[4-(Tetrahydro-2H-thiopyran-4-yl)-3-fluorophenyl]-2-oxo-5-oxazolidinecarboxamide S,S-dioxide] | 231 to 234 °C (dec.) and 229 to 231 °C (dec.)
NC(=O)[C@H]1CN(c2ccc(N3CCN(C(=O)CO)CC3)c(F)c2)C(=O)O1 [Example 448, (5R)-(−)-3-[3-Fluoro-4-[4-(hydroxyacetyl)-1-piperazinyl]phenyl]-2-oxo-5-oxazolidinecarboxamide] | 232 to 235 °C (dec.)
NC(=O)[C@H]1CN(c2cc(F)c(N3CCS(=O)(=O)CC3)c(F)c2)C(=O)O1 [Example 449, (5R)-(−)-3-[4-(Thiomorpholin-4-yl)-3,5-difluorophenyl]-2-oxo-5-oxazolidinecarboxamide S,S-dioxide] | 245 to 248 °C (dec.)
NC(=O)[C@H]1CN(c2cc(F)c(N3CCOCC3)c(F)c2)C(=O)O1 [Example 451, (5R)-(−)-3-[3,5-Difluoro-4-(4-morpholinyl)phenyl]-2-oxo-5-oxazolidinecarboxamide] | 181 to 183 °C
NC(=O)[C@H]1CN(c2ccc(N3CCS(=O)(=O)CC3)cc2)C(=O)O1 [Example 452, (5R)-(−)-3-[4-(Thiomorpholin-4-yl)phenyl]-2-oxo-5-oxazolidinecarboxamide S,S-dioxide] | 226 to 228 °C
NC(=O)[C@H]1CN(c2ccc(N3CCS(=O)(=O)CC3)c(F)c2)C(=O)O1 [Example 453, (5R)-(−)-3-[3-Fluoro-4-(thiomorpholin-4-yl)phenyl]-2-oxo-5-oxazolidinecarboxamide S,S-dioxide] | 245 to 247 °C (dec.)
NC(=O)[C@H]1CN(c2ccc(N3CC[S+]([O-])CC3)c(F)c2)C(=O)O1 [Example 454, (5R)-(−)-3-[3-Fluoro-4-(thiomorpholin-4-yl)phenyl]-2-oxo-5-oxazolidinecarboxamide S-oxide] | 264 to 266 °C (dec.)
NC(=O)[C@H]1CN(c2cc(F)c(N3CC[S+]([O-])CC3)c(F)c2)C(=O)O1 [Example 455, (5R)-(−)-3-[3,5-Difluoro-4-(thiomorpholin-4-yl)phenyl]-2-oxo-5-oxazolidinecarboxamide S-oxide] | 273 to 276 °C (dec.)
NC(=O)[C@H]1CN(c2ccc([C@H]3CC[S@+]([O-])CC3)c(F)c2)C(=O)O1 [Example 457, (5R)-3-[3-Fluoro-4-(trans-tetrahydro-1-oxido-2H-thiopyran-4-yl)phenyl]-2-oxo-5-oxazolidinecarboxamide] | 201 to 203 °C
NC(=O)[C@H]1CN(c2ccc(C3CCS(=O)(=O)CC3)cc2)C(=O)O1 [Example 458, (5R)-(−)-3-[4-(tetrahydro-2H-thiopyran-4-yl)phenyl]-2-oxo-5-oxazolidinecarboxamide S,S-dioxide] | 211 to 212 °C
NC(=O)[C@H]1CN(c2ccc([C@H]3CC[S@@+]([O-])CC3)cc2)C(=O)O1 [Example 459, (5R)-3-[4-(cis-tetrahydro-1-oxido-2H-thiopyran-4-yl)phenyl]-2-oxo-S-oxazolidinecarboxamide] | 269 to 273 °C (dec.)
